Results reported in article PMC11358443, “Polymodal K^+ channel modulation contributes to dual analgesic and anti-inflammatory actions of traditional botanical medicines” (Communications Biology, 2024).

Biological target: human Kv1.3 (Homo sapiens, UniProt P22001)
Assay: TEVC electrophysiology, Xenopus oocytes expressing Kv1.3
Format: cell-based
Details: for effect of 160 mM [K+]O on Kv1.3 inhibition: versus 4 mM [K+]O
Experimental: We generated human potassium channel cRNA transcripts with the mMessage mMachine kit (Thermo Fisher Scientific, Waltham, MA, USA) according to manufacturer’s instructions, after vector linearization, from cDNA sub-cloned into expression vectors (pTLNx, pXOOM and pMAX). We injected Xenopus laevis oocytes (Xenoocyte, Dexter, MI, USA) with the channel cRNAs (0.5–10 ng) and incubated the oocytes at 16 °C for 1–4 days prior to electrophysiological recording.
We performed TEVC at 20–23 °C with an OC-725C amplifier (Warner Instruments, Hamden, CT, USA) and pClamp10 software. Chemicals for recording and oocyte storage solutions were from Sigma-Aldrich (St. Louis, MO). Bath solution contained (in mM): 96 NaCl, 4 KCl, 1 MgCl2, 1 CaCl2, 10 HEPES (pH 7.6). Pipettes were 1–2 MΩ resistance when filled with 3 M KCl. We recorded currents in response to voltage pulses between −120 mV or −80 mV and +40 mV at 10 mV intervals from a holding potential of −80 mV, to yield current–voltage relationships and examine activation kinetics. We recorded and analyzed data using Clampfit (Molecular Devices, Sunnyvale, CA, USA) and Graphpad Prism software (GraphPad, San Diego, CA, USA), stating values as mean ± SEM. We calculated the voltage dependence of activation (V0.5) by measuring tail currents at a voltage pulse of −30 mV (Kv7) or −50 mV (Kv1), then fitted the tail current/voltage relationship with a single Boltzmann function:1 g=(A1−A2)/{1+exp[V1/2−V/Vs]}y+A2 where g is the normalized tail conductance, A1 is the initial value at −∞, A2 is the final value at +∞, V1/2 is the half-maximal voltage of activation and Vs the slope factor. We fitted activation and deactivation kinetics with single exponential functions.
For wild-type and mutant Kv1.3 channels we calculated conductance–voltage curves from current–voltage relationships recorded in response to voltage pulses between −80 mV to +40 mV in 10 mV intervals from a holding potential of −80 mV. The conductance was calculated by subtracting the driving force (EK):2 Ek=xlnK^+i/K^+o

Sequence of human Kv1.3 (P22001 whole entry): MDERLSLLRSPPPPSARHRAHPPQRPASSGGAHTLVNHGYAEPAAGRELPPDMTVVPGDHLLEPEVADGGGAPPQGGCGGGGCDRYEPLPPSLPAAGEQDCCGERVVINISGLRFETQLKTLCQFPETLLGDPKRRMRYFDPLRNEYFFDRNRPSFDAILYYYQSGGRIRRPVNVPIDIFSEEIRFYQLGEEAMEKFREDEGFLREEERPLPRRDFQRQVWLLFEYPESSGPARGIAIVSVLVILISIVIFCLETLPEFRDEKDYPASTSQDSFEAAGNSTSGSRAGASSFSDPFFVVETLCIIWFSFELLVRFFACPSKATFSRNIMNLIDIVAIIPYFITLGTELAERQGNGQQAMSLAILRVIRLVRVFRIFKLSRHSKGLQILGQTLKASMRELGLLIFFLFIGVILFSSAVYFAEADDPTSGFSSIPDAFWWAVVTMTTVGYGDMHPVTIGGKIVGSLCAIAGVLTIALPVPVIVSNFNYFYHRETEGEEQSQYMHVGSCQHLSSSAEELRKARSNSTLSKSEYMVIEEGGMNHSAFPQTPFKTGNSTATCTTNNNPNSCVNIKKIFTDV

For tannic acid, the “Current at 0 (mV)” value (0.1 µM tannic acid, control 1.99 ± 0.28) was 2.39 ± 0.41, the Slope (0.1 µM tannic acid, control 4.86 ± 0.31) was 4.70 ± 0.45 mV and the “V0.5 Normalized tail current” value (0.1 µM tannic acid, control -27.75 ± 1.03) was -27.80 ± 2.36 mV. The “Current at 0 (mV)” value (1 µM tannic acid) was 2.23 ± 0.35, the Slope (1 µM tannic acid) was 4.73 ± 0.52 mV and the “V0.5 Normalized tail current” value (1 µM tannic acid) was -28.17 ± 3.08 mV. For the same substance, the “Current at 0 (mV)” value (3 µM tannic acid) was 1.96 ± 0.31, the Slope (3 µM tannic acid) was 5.21 ± 0.43 mV and the “V0.5 Normalized tail current” value (3 µM tannic acid) was -28.73 ± 3.31 mV. The “Current at 0 (mV)” value (10 µM tannic acid) was 1.09 ± 0.25, the Slope (10 µM tannic acid) was 7.44 ± 0.95 mV and the “V0.5 Normalized tail current” value (10 µM tannic acid) was -25.49 ± 4.06 mV. The “Current at 0 (mV)” value (30 µM tannic acid) was 0.72 ± 0.27, the Slope (30 µM tannic acid) was 10.91 ± 2.27 mV and the “V0.5 Normalized tail current” value (30 µM tannic acid) was -19.06 ± 4.68 mV. The “time to steady-state block” value (30 µM tannic acid, 2 s depolarizing pulses every 60 s (6 pulses)) was 300 ms, the “time to steady-state block” value (30 µM tannic acid, 200-ms depolarizing pulses every 60 s (13 pulses)) was 700 ms and the “effect of 160 mM [K+]O on Kv1.3 inhibition” value (30 µM tannic acid) was “abolished inhibition”. For the same substance, the “Current at 0 (mV)” value (100 µM tannic acid) was 0.32 ± 0.08, the Slope (100 µM tannic acid) was 15.18 ± 2.02 mV and the “V0.5 Normalized tail current” value (100 µM tannic acid) was -9.91 ± 3.45 mV. The “effect of 160 mM [K+]O on Kv1.3 inhibition” value (100 µM tannic acid) was “significantly reduced the efficacy”, the IC50 (prepulse current, read-out: IC50 for Kv1.3 inhibition in oocytes) was 12 ± 1.3 µM and the “concentrations that depolarized the EM of oocytes expressing Kv1.3” value (unclamped oocytes) was “above 10 µM”.
